Laboratory results from patent publication US7772228B2, “Method for treatment of bacterial infections with once or twice-weekly administered rifalazil” (priority 1998, dated 2010).

Test: clinical
Details: human, in vivo
Procedure: A total of four clinical trials have been conducted to study the effects of rifalazil in humans. Two single-dose Phase 1 clinical trials (001) and (002) assessed the safety and pharmacokinetics of rifalazil in normal, healthy, fasted subjects. In the 001 trial, a single 300 mg dose of rifalazil was administered to six subjects. In the 002 trial, single doses of 30 mg or 100 mg were administered to eight subjects each. The results of these studies indicated a substantially higher incidence of adverse reactions at the 300 mg dose compared to the 30 mg or 100 mg dose.
The pharmacokinetics of rifalazil in whole blood in these two clinical trials was similar to that of rifalazil pharmacokinetics in plasma. […] Therefore, future pharmacokinetic analyses focused on rifalazil concentrations in plasma. Table 7 summarizes noncompartmental parameters derived from plasma concentrations in fasted subjects following administration of single doses of 30 mg, 100 mg, or 300 mg of rifalazil in these studies.
Pharmacokinetic analyses associated with clinical trials involved measurement of concentrations of rifalazil in plasma and/or whole blood of subjects participating in the four Phase 1 studies using high performance liquid chromatography.

SMILES: CO[C@H]1/C=C/O[C@@]2(C)Oc3c(C)c(O)c4c(=O)c(c5oc6cc(N7CCN(CC(C)C)CC7)cc(O)c6nc-5c4c3C2=O)NC(=O)/C(C)=C\C=C\[C@H](C)[C@H](O)[C@@H](C)[C@@H](O)[C@@H](C)[C@H](OC(C)=O)[C@@H]1C [Rifalazil, 3′-hydroxy-5′-(4-isobutyl-1-piperazinyl)benzoxasinorifamycin]
- plasma to blood ratio: 1.6:1
- AUC(0-inf) (30 mg): 505 ng·h/mL
- AUC(0-t) (30 mg): 197 ng·h/mL
- Cmax (30 mg): 17.8 ng/mL
- Tmax (30 mg): 3.1 h
- half-life (30 mg): 2920 min
- AUC(0-inf) (100 mg): 1540 ng·h/mL
- AUC(0-t) (100 mg): 800 ng·h/mL
- Cmax (100 mg): 53.6 ng/mL
- Tmax (100 mg): 4 h
- half-life (100 mg): 2590 min
- AUC(0-inf) (300 mg): 4330 ng·h/mL
- AUC(0-t) (300 mg): 1450 ng·h/mL
- Cmax (300 mg): 116 ng/mL
- Tmax (300 mg): 3 h
- half-life (300 mg): 12300 min
